The nature of data set [1]: Cytotoxicity against mouse 3T3L1 cells at 1 to 4 uM after 7 days by MTT assay. Type of data set: cell-based. The conditions noted are these: 3t3-l1, 168 h.
For data set [2], the target named is T1, Pancreatic triacylglycerol lipase (Sus scrofa) (UniProt P00591).
T1 sequence (whole entry): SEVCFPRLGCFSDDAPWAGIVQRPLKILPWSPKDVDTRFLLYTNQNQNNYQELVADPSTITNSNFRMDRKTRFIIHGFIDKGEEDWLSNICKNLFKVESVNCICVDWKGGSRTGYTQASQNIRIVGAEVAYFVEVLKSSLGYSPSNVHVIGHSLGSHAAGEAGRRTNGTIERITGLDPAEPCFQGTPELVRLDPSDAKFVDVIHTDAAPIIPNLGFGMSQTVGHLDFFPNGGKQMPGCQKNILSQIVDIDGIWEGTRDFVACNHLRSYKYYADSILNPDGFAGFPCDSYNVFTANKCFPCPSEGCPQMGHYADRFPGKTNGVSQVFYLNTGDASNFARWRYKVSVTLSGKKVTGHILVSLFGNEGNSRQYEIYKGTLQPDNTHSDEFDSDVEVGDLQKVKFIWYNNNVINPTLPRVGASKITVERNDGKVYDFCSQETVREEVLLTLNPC
Description: Inhibition of pig pancreatic lipase at 30 uM after 10 mins by spectrophotometry relative to control.

The nature of data set [3]: (§1) Antiobesity activity in mouse 3T3L1 cells assessed as suppression of DIM-stimulated lipid accumulation at 4 uM after 7 days by Oil Red O staining method relative to control. The following applies: 3T3-L1, 168 h. Type of data set: functional.
A short description of data set [4]: Antiobesity activity in mouse 3T3L1 cells assessed as suppression of DIM-stimulated lipid accumulation at 25 to 50 uM after 7 days by Oil Red O staining method relative to control. Type of data set: functional, 3T3-L1.
Data set [5] concerns the target T1, Pancreatic triacylglycerol lipase (Sus scrofa). Description: Inhibition of pig pancreatic lipase after 10 mins by spectrophotometry relative to control.
For data set [6], the system named is Mus musculus. Description: Reduction in plasma triglyceride level in corn oil-fed ddY mouse at 150 mg/kg, po after 2 to 6 hrs relative to control. Type of data set: functional. Further details: scale not given: the % may be the effect or the level left.
In data set [7] the test system is Mus musculus. Description: Reduction in plasma triglyceride level in corn oil-fed po dosed ddY mouse after 2 to 6 hrs relative to control. It is filed as functional, organism-based.
Data set [8] concerns Mus musculus. Description: Reduction in plasma triglyceride level in corn oil-fed ddY mouse at 30 mg/kg, po after 2 to 6 hrs relative to control. Type of data set: functional. The arrangement: scale not given: the % may be the effect or the level left.
The test system of another data set is 3T3-L1. The description is as §1. It is filed as functional.

The source made the active and inactive calls. No cut-off for these calls is given here. A value given as a limit tells only on which side of the number the result lay.

Experimental findings from ChEMBL document CHEMBL3596164, “Inhibitory effects of hydroxylated cinnamoyl esters on lipid absorption and accumulation” (Bioorg Med Chem, 2015) are described below.

By inhibition is commonly meant the change of the read-out against control, counted positive when it falls. In the case of `O=C(/C=C/c1ccc(O)c(O)c1)OCCc1ccccc1` [CAFFEIC ACID PHENETHYL ESTER], the Activity result in data set [1] is “Non-toxic”. The inhibition in [2] was 62%; in data set [5], “Dose-dependent effect”. In data set [3], the inhibition at 4 µM came to 11%. Moreover, in data set [4], the “inhibition (INH)” value is given as 24%. Also, the ED50 in data set [5] came out at 10 µM.
For the compound `CCCCCCCCCCOC(=O)/C=C/c1cc(O)c(O)c(O)c1`, the figures for the inhibition in data set [2] and in data set [5] were 92% and “Dose-dependent effect”, respectively. In addition, the inhibition at 4 µM in data set [3] came to 84%. Further, the Activity in the data set with Mus musculus [6] was 57%; in the data set on Mus musculus [7] it was “Dose-dependent effect”; in the data set on Mus musculus [8], 73%. In addition, the ED50 in data set [5] turned out to be 0.9 µM.
Consider `O=C(/C=C/c1ccc(O)c(O)c1)OCCCCCCc1ccccc1`, for which the Activity result in [1] is listed as “Non-toxic”. Besides, the values for the inhibition in data set [2] and in data set [5] were 54% and “Dose-dependent effect”, respectively. For the same compound, the inhibition at 4 µM in data set [3] amounted to 46%. The same compound had an ED50 in data set [5] of 22 µM.
As for `O=C(/C=C/c1ccc(O)cc1)OCCCCCCc1ccccc1`, the inhibition result (in data set [2]; with 3T3-L1) was “inactive” in each case.
For the compound `O=C(/C=C/c1ccc(O)cc1)OCCc1ccccc1`, the inhibition result (in [2]; in the data set with 3T3-L1) was “inactive” throughout.
In the case of `CC(C)=CCC/C(C)=C/COC(=O)/C=C/c1ccc(O)c(O)c1` [GERANYL CAFFEATE], the Activity entry in data set [1] is reported as “Non-toxic”. In data set [2], this compound came in with an inhibition of 62%. For the same compound, the inhibition at 4 µM in [3] stood at 20%.
Consider `CCCCCCCCCCOC(=O)/C=C/c1cccc(O)c1`, for which the inhibition result (in [2]; with 3T3-L1) was “inactive” throughout.
Take `CCCCCCCCCCOC(=O)/C=C/c1ccc(O)c(O)c1`: the Activity entry in [1] was “Non-toxic”; in the data set on Mus musculus [6], 69%; in the data set with Mus musculus [7], “Dose-dependent effect”; with Mus musculus [8], 78%. In addition, the results for the inhibition in data set [2] and in data set [5] were 38% and “Dose-dependent effect”, respectively. The inhibition at 4 µM in [3] came to 71%. In [5], the ED50 was more than 40 µM.
Take `CCCCCCCCCCOC(=O)/C=C/c1ccc(O)cc1`: the inhibition result (in data set [2]; in the data set with 3T3-L1) was “inactive” each time.
